Key:
Experiment in all cases: TPP-CCR in living HL-60 cells
Type in all cases: cell-based
ENDOG = target: T1, ENDOG (Homo sapiens, UniProt Q14249)
T1 construct: endogenous in cells; host or cells: HL-60 (ATCC CCL-240)
T1 sequence (Q14249 49-297): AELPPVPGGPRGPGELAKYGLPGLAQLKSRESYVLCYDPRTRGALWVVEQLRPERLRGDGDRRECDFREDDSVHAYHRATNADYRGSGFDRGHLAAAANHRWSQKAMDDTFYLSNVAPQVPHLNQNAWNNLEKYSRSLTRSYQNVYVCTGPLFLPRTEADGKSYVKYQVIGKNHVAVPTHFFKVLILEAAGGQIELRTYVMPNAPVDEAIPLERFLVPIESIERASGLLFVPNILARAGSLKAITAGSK

DDX18 = target: T2, DDX18 (Homo sapiens, UniProt Q9NVP1)
T2 construct: endogenous in cells; host or cells: HL-60 (ATCC CCL-240)
T2 sequence (Q9NVP1 1-670): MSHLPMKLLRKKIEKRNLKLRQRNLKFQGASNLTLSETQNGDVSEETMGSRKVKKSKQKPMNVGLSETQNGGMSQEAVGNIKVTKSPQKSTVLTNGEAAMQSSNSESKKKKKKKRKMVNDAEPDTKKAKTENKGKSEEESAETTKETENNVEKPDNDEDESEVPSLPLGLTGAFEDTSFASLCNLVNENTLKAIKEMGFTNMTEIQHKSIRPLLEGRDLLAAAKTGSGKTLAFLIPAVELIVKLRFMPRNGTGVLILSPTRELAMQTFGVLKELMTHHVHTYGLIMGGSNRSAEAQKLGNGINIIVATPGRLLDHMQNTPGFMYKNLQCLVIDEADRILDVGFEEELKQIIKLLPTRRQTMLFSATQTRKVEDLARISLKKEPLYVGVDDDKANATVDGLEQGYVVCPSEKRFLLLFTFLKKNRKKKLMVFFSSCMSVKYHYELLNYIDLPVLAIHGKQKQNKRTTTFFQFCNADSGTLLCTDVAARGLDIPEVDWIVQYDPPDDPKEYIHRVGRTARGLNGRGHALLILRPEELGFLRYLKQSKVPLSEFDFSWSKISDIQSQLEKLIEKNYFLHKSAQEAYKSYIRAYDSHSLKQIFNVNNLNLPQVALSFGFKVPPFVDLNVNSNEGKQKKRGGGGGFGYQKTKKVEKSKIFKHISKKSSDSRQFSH

UGGT1 = target: T3, UGGT1 (Homo sapiens, UniProt Q9NYU2)
T3 construct: endogenous in cells; host or cells: HL-60 (ATCC CCL-240)

SCO1 = target: T4, SCO1 (Homo sapiens, UniProt O75880)
T4 construct: endogenous in cells; host or cells: HL-60 (ATCC CCL-240)
T4 sequence (O75880 68-301): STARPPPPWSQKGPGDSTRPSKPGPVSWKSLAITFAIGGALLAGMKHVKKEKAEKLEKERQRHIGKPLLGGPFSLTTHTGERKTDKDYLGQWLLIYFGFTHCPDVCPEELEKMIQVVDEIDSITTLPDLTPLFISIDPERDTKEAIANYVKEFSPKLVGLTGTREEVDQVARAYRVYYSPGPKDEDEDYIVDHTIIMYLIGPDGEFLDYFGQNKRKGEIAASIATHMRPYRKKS

[1] = living HL-60 cells, […] °C, TMT-MS

T3 sequence (Q9NYU2 43-1555): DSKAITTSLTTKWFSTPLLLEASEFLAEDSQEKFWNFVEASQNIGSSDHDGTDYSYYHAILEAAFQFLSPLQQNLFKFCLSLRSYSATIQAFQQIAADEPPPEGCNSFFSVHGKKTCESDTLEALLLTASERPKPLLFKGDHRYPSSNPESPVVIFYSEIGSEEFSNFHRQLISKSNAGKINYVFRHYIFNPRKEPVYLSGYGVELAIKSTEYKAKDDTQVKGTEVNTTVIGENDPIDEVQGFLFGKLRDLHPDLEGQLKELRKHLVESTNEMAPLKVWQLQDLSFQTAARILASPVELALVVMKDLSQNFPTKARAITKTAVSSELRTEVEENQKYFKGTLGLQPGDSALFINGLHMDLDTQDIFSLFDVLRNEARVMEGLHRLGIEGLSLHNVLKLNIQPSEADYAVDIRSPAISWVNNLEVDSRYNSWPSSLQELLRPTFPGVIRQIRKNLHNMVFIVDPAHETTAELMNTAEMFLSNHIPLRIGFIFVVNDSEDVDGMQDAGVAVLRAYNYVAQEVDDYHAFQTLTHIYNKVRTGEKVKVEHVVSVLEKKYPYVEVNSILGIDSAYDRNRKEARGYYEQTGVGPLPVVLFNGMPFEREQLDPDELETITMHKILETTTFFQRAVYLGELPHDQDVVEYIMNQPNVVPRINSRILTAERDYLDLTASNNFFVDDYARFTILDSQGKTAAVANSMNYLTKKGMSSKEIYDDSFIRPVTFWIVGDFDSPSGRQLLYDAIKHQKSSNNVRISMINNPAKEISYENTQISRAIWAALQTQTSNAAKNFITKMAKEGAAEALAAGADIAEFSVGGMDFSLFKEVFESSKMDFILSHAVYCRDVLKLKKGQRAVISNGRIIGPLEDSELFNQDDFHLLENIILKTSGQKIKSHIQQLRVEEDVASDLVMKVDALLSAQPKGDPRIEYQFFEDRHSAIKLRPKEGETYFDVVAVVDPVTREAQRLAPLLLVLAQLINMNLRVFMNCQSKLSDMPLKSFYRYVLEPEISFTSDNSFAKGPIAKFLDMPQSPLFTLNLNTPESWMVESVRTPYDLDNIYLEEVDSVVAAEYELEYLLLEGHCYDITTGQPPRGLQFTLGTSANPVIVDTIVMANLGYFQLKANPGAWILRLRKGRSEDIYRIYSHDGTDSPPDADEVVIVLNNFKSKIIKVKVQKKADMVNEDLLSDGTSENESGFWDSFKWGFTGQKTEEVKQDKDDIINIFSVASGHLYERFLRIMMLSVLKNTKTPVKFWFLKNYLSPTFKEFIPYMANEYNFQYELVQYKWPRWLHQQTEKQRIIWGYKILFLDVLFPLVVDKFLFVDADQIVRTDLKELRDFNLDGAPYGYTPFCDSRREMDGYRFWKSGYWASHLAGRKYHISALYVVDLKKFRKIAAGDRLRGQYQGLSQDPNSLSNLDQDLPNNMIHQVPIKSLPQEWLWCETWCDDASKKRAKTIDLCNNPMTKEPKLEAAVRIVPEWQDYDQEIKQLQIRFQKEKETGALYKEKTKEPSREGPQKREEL

Question: How did the Hill slope (ENDOG; TPP-CCR, living cells, ENDOG) turn out when `Cc1cnc(Nc2ccc(F)cc2Cl)nc1-c1c[nH]c(C(=O)N[C@H](CO)c2cccc(Cl)c2)c1` [ERK 11e] was run?
Answer: The Hill slope was 0.40.

Question: What about the “Hill slope (ENDOG)” value (ENDOG; [1]) of the same compound?
Answer: Its value is 0.40.

Question: And the EC50 (ENDOG; living HL-60 cells, […] °C, TMT-MS, read-out: pEC50 (ENDOG) (converted))?
Answer: Its EC50 is 2.75 nM.

Question: And the Hill slope (DDX18; TPP-CCR, living cells, DDX18)?
Answer: The Hill slope was 0.20.

Question: And the “Hill slope (DDX18)” value (DDX18; [1])?
Answer: Its value is 0.20.

Question: And the EC50 (DDX18; living HL-60 cells, […] °C, TMT-MS, read-out: pEC50 (DDX18) (converted))?
Answer: Its EC50 is 200 nM.

Question: What about the Hill slope (UGGT1; TPP-CCR, living cells, UGGT1) of the same compound?
Answer: The Hill slope was 1.97.

Question: What about the “Hill slope (UGGT1)” value (UGGT1; [1]) of the same compound?
Answer: Its value is 1.97.

Question: What about the EC50 (UGGT1; living HL-60 cells, […] °C, TMT-MS, read-out: pEC50 (UGGT1) (converted)) of the same compound?
Answer: The EC50 was 5370 nM.

Question: And the Hill slope (SCO1; TPP-CCR, living cells, SCO1)?
Answer: The Hill slope was 1.25.

Question: What about the “Hill slope (SCO1)” value (SCO1; [1]) of the same compound?
Answer: Its value is 1.25.

Question: What about the EC50 (SCO1; living HL-60 cells, […] °C, TMT-MS, read-out: pEC50 (SCO1) (converted)) of the same compound?
Answer: Its EC50 is 2820 nM.

From article PMC9147192, “Small Molecule Arranged Thermal Proximity Coaggregation (smarTPCA)—A Novel Approach to Characterize Protein–Protein Interactions in Living Cells by Similar Isothermal Dose–Responses” (International Journal of Molecular Sciences, 2022)
